Measured values reported in ChEMBL document CHEMBL1287762, “Synthesis and biological evaluation of 3-[4-(amino/methylsulfonyl)phenyl]methylene-indolin-2-one derivatives as novel COX-1/2 and 5-LOX inhibitors” (Bioorg Med Chem Lett, 2010).

What was measured:
Oryctolagus cuniculus = species: Oryctolagus cuniculus; experiment: Selectivity ratio, IC50 for COX-1in rabbit peripheral venous blood to IC50 for COX-2 in rabbit peripheral venous blood; format: tissue-based
Rattus norvegicus [1] = experiment: Ulcerogenic effect in Wistar rat assessed as gastric ulcer area at 10.44 mg/kg, po administered for 7 days by microscopy; format: toxicity, organism-based, Stomach; parameters: dose 10.44 mg/kg, route oral; settings: in vivo, 168 h
Mus musculus [2] = experiment: Analgesic activity in BALB/c mouse assessed as inhibition of acetic acid-induced writhing response for 15 mins at 20.88 mg/kg, po; format: functional; settings: 0.25 h
Rattus norvegicus [3] = experiment: Antiinflammatory activity in Wistar rat assessed as inhibition of carrageenan-induced paw edema at 10.44 mg/kg, po administered 1 hr before carrageenan challenge measured at 6 hrs by plethysmometer; format: functional
[4] = target: T1, Prostaglandin G/H synthase 1 (Oryctolagus cuniculus, UniProt O97554); experiment: Inhibition of COX-1 in rabbit peripheral venous blood assessed as formation of 12-hydroxyheptadecatrienoic acid after 24 hrs by HPLC in presence of calcium ionophore A23187
T1 sequence (O97554 whole entry): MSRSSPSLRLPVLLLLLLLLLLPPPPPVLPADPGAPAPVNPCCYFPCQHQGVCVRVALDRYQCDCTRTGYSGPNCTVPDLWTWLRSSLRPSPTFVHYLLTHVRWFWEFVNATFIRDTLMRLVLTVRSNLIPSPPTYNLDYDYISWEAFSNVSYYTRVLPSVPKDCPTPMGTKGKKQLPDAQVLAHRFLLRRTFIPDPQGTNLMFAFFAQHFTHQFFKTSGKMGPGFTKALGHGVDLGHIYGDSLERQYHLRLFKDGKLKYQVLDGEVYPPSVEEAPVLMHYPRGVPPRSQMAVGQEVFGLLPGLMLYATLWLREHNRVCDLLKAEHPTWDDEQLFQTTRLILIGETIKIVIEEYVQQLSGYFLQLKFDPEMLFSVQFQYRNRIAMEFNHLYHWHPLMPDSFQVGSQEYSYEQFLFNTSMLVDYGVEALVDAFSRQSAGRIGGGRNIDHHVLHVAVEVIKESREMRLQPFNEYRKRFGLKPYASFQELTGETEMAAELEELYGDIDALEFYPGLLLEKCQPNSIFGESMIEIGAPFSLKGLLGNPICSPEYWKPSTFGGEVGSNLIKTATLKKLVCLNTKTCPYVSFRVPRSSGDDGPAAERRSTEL

[5] = target: T2, Prostaglandin G/H synthase 2 (Oryctolagus cuniculus, UniProt O02768); experiment: Inhibition of COX-2 in rabbit peripheral venous blood assessed as formation of 12-hydroxyheptadecatrienoic acid after 24 hrs in by HPLC presence of calcium ionophore […] and lipopolysaccharide; format: tissue-based
T2 sequence (O02768 whole entry): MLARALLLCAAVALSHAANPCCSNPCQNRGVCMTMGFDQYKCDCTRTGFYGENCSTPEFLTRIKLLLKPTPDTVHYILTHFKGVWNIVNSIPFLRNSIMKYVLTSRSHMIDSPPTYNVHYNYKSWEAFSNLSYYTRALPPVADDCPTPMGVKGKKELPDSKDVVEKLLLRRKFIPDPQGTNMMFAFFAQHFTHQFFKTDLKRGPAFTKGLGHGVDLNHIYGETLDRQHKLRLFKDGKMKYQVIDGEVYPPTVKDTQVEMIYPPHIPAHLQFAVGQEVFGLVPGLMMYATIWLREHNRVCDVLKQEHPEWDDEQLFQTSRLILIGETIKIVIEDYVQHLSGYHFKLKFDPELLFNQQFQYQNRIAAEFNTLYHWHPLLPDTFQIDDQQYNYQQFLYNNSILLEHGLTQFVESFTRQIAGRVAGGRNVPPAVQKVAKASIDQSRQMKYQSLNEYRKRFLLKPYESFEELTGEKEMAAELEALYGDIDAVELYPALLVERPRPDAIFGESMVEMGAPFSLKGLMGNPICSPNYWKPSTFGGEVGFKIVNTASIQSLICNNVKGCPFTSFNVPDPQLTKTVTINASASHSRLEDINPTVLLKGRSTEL

Rattus norvegicus [6] = experiment: Antiinflammatory activity in Wistar rat assessed as inhibition of carrageenan-induced paw edema at 10.44 mg/kg, po administered 1 hr before carrageenan challenge measured at 1 hr by plethysmometer; format: functional
[7] = Inhibition of 5-LOX in rabbit peripheral venous blood assessed as formation of […] after 30 mins by HPLC; format: tissue-based, Oryctolagus cuniculus
Rattus norvegicus [8] = experiment: Antiinflammatory activity in Wistar rat assessed as inhibition of carrageenan-induced paw edema at 10.44 mg/kg, po administered 1 hr before carrageenan challenge measured at 3 hrs by plethysmometer; format: functional
Rattus norvegicus [9] = experiment: Antiinflammatory activity in Wistar rat assessed as inhibition of carrageenan-induced paw edema at 11.48 mg/kg, po administered 1 hr before carrageenan challenge measured at 3 hrs by plethysmometer; format: functional
Rattus norvegicus [10] = experiment: Antiinflammatory activity in Wistar rat assessed as inhibition of carrageenan-induced paw edema at 11.48 mg/kg, po administered 1 hr before carrageenan challenge measured at 6 hrs by plethysmometer; format: functional
Rattus norvegicus [11] = experiment: Ulcerogenic effect in Wistar rat assessed as gastric ulcer area at 11.48 mg/kg, po administered for 7 days by microscopy; format: toxicity, organism-based, Stomach; parameters: dose 11.48 mg/kg, route oral; settings: in vivo, 168 h
Mus musculus [12] = experiment: Analgesic activity in BALB/c mouse assessed as inhibition of acetic acid-induced writhing response for 15 mins at 22.96 mg/kg, po; format: functional; settings: 0.25 h
Rattus norvegicus [13] = experiment: Antiinflammatory activity in Wistar rat assessed as inhibition of carrageenan-induced paw edema at 11.48 mg/kg, po administered 1 hr before carrageenan challenge measured at 1 hr by plethysmometer; format: functional

| Structure (SMILES) | Ratio IC50 (Oryctolagus cuniculus) | Activity (Rattus norvegicus [1]) [mm2] | inhibition in vivo at 20.88 mg/kg (Mus musculus [2]) [%] | inhibition in vivo at 10.44 mg/kg (Rattus norvegicus [3]) [%] | IC50 [4] [nM] | IC50 [5] [nM] | inhibition in vivo at 10.44 mg/kg (Rattus norvegicus [6]) [%] | IC50 [7] [nM] | inhibition in vivo at 10.44 mg/kg (Rattus norvegicus [8]) [%] | inhibition in vivo at 11.48 mg/kg (Rattus norvegicus [9]) [%] | inhibition in vivo at 11.48 mg/kg (Rattus norvegicus [10]) [%] | Activity (Rattus norvegicus [11]) [mm2] | inhibition in vivo at 22.96 mg/kg (Mus musculus [12]) [%] | inhibition in vivo at 11.48 mg/kg (Rattus norvegicus [13]) [%] |
| --- | --- | --- | --- | --- | --- | --- | --- | --- | --- | --- | --- | --- | --- | --- |
| CS(=O)(=O)c1ccc(/C=C2/C(=O)Nc3ccc([N+](=O)[O-])cc32)cc1 | 0.15 | 0.81 | 73.2 | 23.5 | 500 | 3290 | 28.6 | 3910 | 33.3 | – | – | – | – | – |
| CS(=O)(=O)c1ccc(/C=C2/C(=O)Nc3ccc(Br)cc32)cc1 | 1.1 | – | – | – | 110 | 100 | – | 560 | – | 47.2 | 29.4 | 0.44 | 82.8 | 33.3 |
